Experimental data: patent US20160067232A1, “METHODS FOR TREATING A STROKE-RELATED SENSORIMOTOR IMPAIRMENT USING AMINOPYRIDINES” (Acorda Therapeutics, Inc., priority 2011, published 2016)
“And” between values parts separate entries of the source, which are not always exact repeats. Equal values may be shown once. Read-outs that look alike come from different tables or passages of the source.

What was measured:
[1] = tested on: rats with middle cerebral artery occlusion (MCAO); assay: Infarct volume measurement (H&E), MCAO rats (Example 2); format: in vivo, Sprague Dawley rat; settings: Day 63
Method: Euthanasia and post-mortem processing: Infarct Volume analysis. After the last behavioral assessment, rats were anesthetized deeply with ketamine/xylazine (100 mg/kg ketamine, 10 mg/kg xylazine, i.p.) and perfused transcardially with normal saline (with heparin 2 unit/ml) followed by 4% paraformaldehyde or formalin on Day 63. Brains were harvested and processed for histological assessment. A subset of 10 brains per group was processed for infarct volume measurement (H&E staining).
Infarct measurement: Brains were embedded in paraffin and 5 micron thick coronal sections were cut using a microtome. Sections were stained with hematoxylin and eosin (H&E), using standard methods. Seven coronal sections (+4.7, +2.7, +0.7, −1.3, −3.3, −5.3 and −7.3, compared to bregma respectively) from each brain were photographed by a digital camera, and the infarct area on each slice was determined by NIH Image (Image J) using the “indirect method” (area of the intact contralateral [left] hemisphere−area of intact regions of the ipsilateral [right] hemisphere) to correct for brain edema. Infarct areas were then summed among slices and multiplied by slice thickness (the distance between sections) to give total infarct volume, which was expressed as a percentage of intact contralateral hemispheric volume.

[2] = tested on: rats with middle cerebral artery occlusion (MCAO); assay: Forelimb placing test, MCAO rats, dose escalation study (Example 17); format: in vivo, Sprague Dawley rat; settings: for Forelimb placing compared to vehicle: p<0.001
From the text: The limb placing tests were divided into forelimb and hindlimb tests. For the forelimb-placing test, the examiner held the rat close to a tabletop and scored the rat's ability to place the forelimb on the tabletop in response to whisker, visual, tactile, or proprioceptive stimulation. Similarly, for the hindlimb placing test, the examiner assessed the rat's ability to place the hindlimb on the tabletop in response to tactile and proprioceptive stimulation. Together, these tests reflect function and recovery in the sensorimotor systems (De Ryck et al., Brain Res 1992; 573:44-60). Separate sub-scores were obtained for each mode of sensory input and added to give total scores (for the forelimb placing test: 0=normal, 12=maximally impaired; for the hindlimb placing test: 0=normal; 6=maximally impaired). Scores were given in half-point increments (see below). Typically, there is a slow and steady recovery of limb placing behavior during the first month after stroke.
Forelimb placing test (0-12): • whisker placing (0-2); • visual placing (forward (0-2), sideways (0-2)) • tactile placing (dorsal (0-2), lateral (0-2)) • proprioceptive placing (0-2).
For each subtest, animals are scored as followed: • 0.0=immediate response • 0.5=response within 2 seconds • 1.0=response of 2-3 seconds • 1.5=response of >3 seconds • 2.0=no response
4-AP was evaluated for its ability to promote functional sensorimotor improvement following ischemic stroke in rats with stable motor deficits at times remote from their ischemic events. The animal model of ischemic stroke, i.e., the MCAO model, used in this example is the same as the animal model described in Example 2.
In the MCAO model recovery begins to plateau by 4 weeks after MCAO, at which time there are still measurable deficits in sensorimotor function. However, 4 weeks after MCAO there may still be slow continued endogenous recovery.
4-aminopyridine was dissolved in water for injection (WFI, Cellgro) and sterile filtered. […]

[3] = tested on: potassium channels; settings: cited from earlier work
[4] = typical; also printed as 94 ng/mL^−1; cited from earlier work
[5] = Body weight (g) of MCAO rats (Example 2); settings: individual animals and Mean (N=15), listed as 4-AP

## Nc1ccncc1 [4-aminopyridine]
[1]; Group 1 (sequence high, low, vehicle)
  Mean infarct volume (% of contralateral hemisphere): 45.0 (±1.8) %
[1]; Group 2 (sequence low, vehicle, high)
  Mean infarct volume (% of contralateral hemisphere): 41.4 (±2.3) %
[1]; Group 3 (sequence vehicle, high, low)
  Mean infarct volume (% of contralateral hemisphere): 39.0 (±3.3) %
[2]; 0.5 mg/kg b.i.d. p.o., Day 59, treatment started Day 56 after MCAO
  Forelimb placing compared to vehicle: significantly improved in forelimb placing
[2]; 1 mg/kg b.i.d. p.o., Day 62
  Forelimb placing compared to vehicle: measureable improvement
[2]; 2 mg/kg b.i.d. p.o., Day 65, p<0.0001
  Forelimb function compared to vehicle: significant improvements
[3]; at high concentration (millimolar concentrations)
  potassium channel blocking activity: broad-spectrum blocker of potassium channels
[3]; at plasma concentrations obtained in clinical studies (<1 microM)
  potassium channel blocking activity: selective for certain types of these channels
[4]
  4-AP plasma concentrations obtained in clinical studies: < 1 µM
[5]; Group 1, D30, treatment phase 1 (high-dose 4-AP)
  Weight (g) Group 1, D30: 425 g (2×) and 450 g and 435 g and 490 g and 544 g and 470 g and 512 g and 434 g and 482 g and 480 g and 360 g and 422 g and 496 g and 372 g
[5]; Group 1, D32, treatment phase 1 (high-dose 4-AP)
  Weight (g) Group 1, D32: 411 g and 441 g and 417 g and 470 g and 515 g and 454 g and 496 g and 422 g and 453 g and 461 g and 351 g and 404 g and 412 g and 477 g and 360 g
[5]; Group 1, D44, treatment phase 2 (low-dose 4-AP)
  Weight (g) Group 1, D44: 455 g and 501 g and 447 g and 511 g and 566 g and 480 g and 545 g and 454 g and 502 g (2×) and 400 g and 440 g and 456 g and 494 g and 390 g
[5]; Group 1, D46, treatment phase 2 (low-dose 4-AP)
  Weight (g) Group 1, D46: 448 g and 490 g (2×) and 440 g and 494 g (2×) and 570 g and 488 g and 552 g and 457 g and 491 g and 386 g and 442 g and 446 g and 379 g
[5]; Group 2, D30, treatment phase 1 (low-dose 4-AP)
  Weight (g) Group 2, D30: 474 g and 380 g (2×) and 414 g and 444 g and 410 g and 480 g (2×) and 540 g and 475 g and 512 g and 434 g and 420 g and 416 g and 431 g
[5]; Group 2, D32, treatment phase 1 (low-dose 4-AP)
  Weight (g) Group 2, D32: 473 g and 369 g and 410 g and 426 g and 406 g and 455 g and 541 g and 467 g and 508 g and 476 g and 424 g and 403 g and 412 g and 374 g and 428 g
[5]; Group 2, D58, treatment phase 3 (high-dose 4-AP)
  Weight (g) Group 2, D58: 530 g and 425 g and 461 g and 477 g and 455 g and 540 g and 635 g and 535 g and 570 g and 546 g and 499 g and 456 g and 470 g and 432 g and 483 g
[5]; Group 2, D60, treatment phase 3 (high-dose 4-AP)
  Weight (g) Group 2, D60: 517 g and 410 g and 444 g (2×) and 460 g and 441 g and 519 g and 614 g and 508 g and 535 g and 530 g and 488 g and 447 g and 417 g and 471 g
[5]; Group 3, D44, treatment phase 2 (high-dose 4-AP)
  Weight (g) Group 3, D44: 460 g and 461 g and 469 g and 451 g and 423 g and 462 g and 463 g (2×) and 532 g and 572 g and 538 g and 442 g and 445 g (2×) and 453 g
[5]; Group 3, D46, treatment phase 2 (high-dose 4-AP)
  Weight (g) Group 3, D46: 440 g and 436 g (2×) and 455 g and 435 g (2×) and 402 g and 442 g and 502 g and 567 g and 497 g and 446 g and 430 g (2×) and 412 g
[5]; Group 3, D58, treatment phase 3 (low-dose 4-AP)
  Weight (g) Group 3, D58: 475 g and 486 g and 485 g and 467 g and 440 g and 472 g and 490 g and 550 g and 625 g and 573 g and 492 g and 462 g and 469 g and 476 g and 461 g
[5]; Group 3, D60, treatment phase 3 (low-dose 4-AP)
  Weight (g) Group 3, D60: 466 g and 479 g and 484 g (2×) and 463 g and 430 g and 465 g and 550 g and 613 g and 549 g and 468 g and 453 g and 456 g and 470 g and 447 g
